From patent US7566712B2, “Biaryl piperazinyl-pyridine analogues” (Neurogen Corporation, priority 2003, dated 2009)

Target: T1, human capsaicin receptor (Homo sapiens, UniProt Q8NER1)
T1 construct: pBK-CMV expression construct encoding the full length human capsaicin receptor; expressed in transfected cells
Experiment: Calcium mobilization assay, determination of antagonist activity (Example 6)
Type: cell-based
Settings: Table II; IC50 determined as described in Example 6
Method in brief: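 HEK293 clonal lines stably expressing full-length human capsaicin receptor, loaded with Fluo-3 AM in KRH buffer pH 7.4, 1–2 h at 37 °C. Compounds (1–5 μM final) preincubated 0.5–6 h at room temperature, then capsaicin at its EC50 added. FLIPR/Fluoroskan calcium signal; IC50 as 50% decrease of capsaicin response.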

T1 sequence (Q8NER1 whole entry): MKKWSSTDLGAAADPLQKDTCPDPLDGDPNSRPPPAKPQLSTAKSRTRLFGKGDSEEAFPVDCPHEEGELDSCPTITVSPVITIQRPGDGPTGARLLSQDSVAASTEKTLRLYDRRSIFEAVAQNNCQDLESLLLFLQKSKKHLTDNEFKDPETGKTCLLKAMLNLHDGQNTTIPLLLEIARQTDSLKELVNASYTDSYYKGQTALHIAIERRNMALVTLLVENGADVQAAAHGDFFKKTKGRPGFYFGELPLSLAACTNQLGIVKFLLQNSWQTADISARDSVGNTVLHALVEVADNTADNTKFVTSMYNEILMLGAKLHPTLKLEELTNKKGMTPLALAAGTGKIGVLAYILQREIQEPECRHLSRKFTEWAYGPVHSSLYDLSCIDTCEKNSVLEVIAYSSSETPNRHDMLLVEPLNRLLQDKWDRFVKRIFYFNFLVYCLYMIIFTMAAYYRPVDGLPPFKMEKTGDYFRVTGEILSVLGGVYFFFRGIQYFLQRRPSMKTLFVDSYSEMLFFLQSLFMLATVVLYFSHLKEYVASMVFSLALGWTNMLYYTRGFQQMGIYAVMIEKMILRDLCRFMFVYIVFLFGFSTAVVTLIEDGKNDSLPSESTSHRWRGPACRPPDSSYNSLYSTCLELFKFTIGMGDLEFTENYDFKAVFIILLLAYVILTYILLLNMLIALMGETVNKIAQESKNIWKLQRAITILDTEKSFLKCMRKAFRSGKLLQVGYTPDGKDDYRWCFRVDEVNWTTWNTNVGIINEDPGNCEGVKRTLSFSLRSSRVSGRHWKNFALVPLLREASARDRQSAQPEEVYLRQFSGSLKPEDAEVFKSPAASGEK

Structure (SMILES) | IC50 [nM]
N#Cc1cccc(-c2nc(N3CCOCC3)nc(N3CCN(c4ncccc4C(F)(F)F)CC3)n2)c1 [Example 435, 3-(4-morpholin-4-yl-6-{4-[3-(trifluoromethyl)pyridin-2-yl]piperazin-1-yl}-1,3,5-triazin-2-yl)benzonitrile] | ≤ 1000
CCc1ccc(-c2cc(N3CCN(c4ncccc4C)C[C@H]3C)nc(N3CCOCC3)n2)cc1 [Example 510, 4-{4-(4-ethylphenyl)-6-[(2R)-2-methyl-4-(3-methylpyridin-2-yl)piperazin-1-yl]pyrimidin-2-yl}morpholine] | ≤ 1000
NC1CCN(c2nc(-c3ccc(F)c(Cl)c3)cc(N3CCN(c4ncccc4C(F)(F)F)CC3)n2)CC1 [Example 569, 1-(4-(3-chloro-4-fluorophenyl)-6-{4-[3-(trifluoromethyl)pyridin-2-yl]piperazin-1-yl}pyrimidin-2-yl)piperidin-4-amine] | ≤ 1000
CC(C)c1ccc(-c2cc(N3CCN(c4ncccc4C#N)C[C@H]3C)nc(N3CCOCC3)n2)cc1 [Example 503, 2-{(3R)-4-[6-(4-isopropylphenyl)-2-morpholin-4-ylpyrimidin-4-yl]-3-methylpiperazin-1-yl}nicotinonitrile] | ≤ 1000
CCCCN1CCN(c2nc(-c3cccc(Cl)c3)nc(N3CCN(c4ncccc4C(F)(F)F)CC3)n2)CC1 [Example 444, 2-(4-butylpiperazin-1-yl)-4-(3-chlorophenyl)-6-{4-[3-(trifluoromethyl)pyridin-2-yl]piperazin-1-yl}-1,3,5-triazine] | ≤ 1000

Same assay, conditions: Table II; IC50 determined as described in Example 6 (antagonist activity, calcium mobilization)

Structure (SMILES) | IC50 [nM]
C[C@H]1CN(c2nccnc2Cl)CCN1c1cc(-c2ccc(F)c(Cl)c2)nc(N2CCCC2)n1 [Example 974, 4-(3-chloro-4-fluorophenyl)-6-[(2S)-4-(3-chloropyrazin-2-yl)-2-methylpiperazin-1-yl]-2-pyrrolidin-1-ylpyrimidine] | ≤ 1000
Cc1ccnnc1N1CCN(c2cc(-c3ccc(F)c(Cl)c3)nc(N3CCCC3C)n2)CC1 (stereo not drawn) [Example 1001, 3-{4-[6-(3-ohloro-4-fluorophenyl)-2-(2-methylpyrrolidin-1-yl)pyrimidin-4-yl]piperazin-1-yl}-4-methylpyridazine] | ≤ 1000

Same assay, conditions: Table II; determined as described in Example 6 (antagonist activity); "*" = 1 micromolar or less

Structure (SMILES) | IC50 [nM]
CC1CCCN1c1nc(-c2ccc(F)c(Cl)c2)cc(N2CCN(c3ncccc3Cl)CC2=O)n1 (stereo not drawn) [Example 853, 1-[6-(3-chloro-4-fluorophenyl)-2-(2-methylpyrrolidin-1-yl)pyrimidin-4-yl]-4-(3-chloropyridin-2-yl)piperazin-2-one] | ≤ 1000
C[C@@H]1CN(c2ncccc2Cl)CCN1c1cc(-c2ccc(Cl)c(F)c2)nc(N2CCCC2)n1 [Example 833, 4-(4-chloro-3-fluorophenyl)-6-[(2R)-4-(3-chloropyridin-2-yl)-2-methylpiperazin-1-yl]-2-pyrrolidin-1-ylpyrimidine] | ≤ 1000
COc1ccc(Cl)c(N2CCN(c3cc(-c4ccc(F)cc4)nc(N4CCCC4C)n3)[C@H](C)C2)n1 (stereo partly drawn) [Example 955, 4-[4-(3-chloro-6-methoxypyridin-2-yl)-2-methylpiperazin-1-yl]-6-(4-fluorophenyl)-2-(2-methylpyrrolidin-1-yl)pyrimidine] | ≤ 1000
C[C@H]1CN(c2ncccc2Cl)CCN1c1cc(-c2ccc(F)c(Cl)c2)nc(Cl)n1 [Example 944, 2-chloro-4-(3-chloro-4-fluorophenyl)-6-[(2S)-4-(3-chloropyridin-2-yl)-2-methylpiperazin-1-yl]pyrimidine] | ≤ 1000
CC(=O)c1cccc(-c2cc(N3CCN(c4ncccc4Cl)C[C@H]3C)nc(N3CCCC3C)n2)c1 (stereo in doubt) [Example 888, 1-{3-[6-[4-(3-chloropyridin-2-yl)-2-methylpiperazin-1-yl]-2-(2-methylpyrrolidin-1-yl)pyrimidin-4-yl]phenyl}ethanone] | ≤ 1000
CC1CCCN1c1nc(-c2ccc(F)c(Cl)c2)cc(N2CCN(c3nccnc3Cl)C[C@H]2C)n1 (stereo partly drawn) [Example 908] | ≤ 1000
CC1CCCN1c1nc(-c2cncc(C#N)c2)cc(N2CCN(c3ncccc3C(F)(F)F)CC2)n1 (stereo not drawn) [Example 887, 5-(2-(2-methylpyrrolidin-1-yl)-6-{4-[3-(trifluoromethyl)pyridin-2-yl]piperazin-1-yl}pyrimidin-4-yl)nicotinonitrile] | ≤ 1000
CCNC(=O)c1cnc(N2CCN(c3cc(-c4ccc(F)c(Cl)c4)nc(N4CCCC4C)n3)[C@H](C)C2)c(Cl)c1 (stereo partly drawn) [Example 933, 5-chloro-6-{4-[6-(3-chloro-4-fluorophenyl)-2-(2-methylpyrrolidin-1-yl)pyrimidin-4-yl]-3-methylpiperazin-1-yl}-N-ethylnicotinamide] | ≤ 1000
C[C@H]1CN(c2nccnc2Cl)CCN1c1cc(-c2ccc(Cl)c(F)c2)nc(N2CCCC2)n1 [Example 961, 4-(4-chloro-3-fluorophenyl)-6-[(2S)-4-(3-chloropyrazin-2-yl)-2-methylpiperazin-1-yl]-2-pyrrolidin-1-ylpyrimidine] | ≤ 1000
C[C@@H]1CN(c2ncccc2Cl)CCN1c1cc(-c2ccc(Cl)c(F)c2)nc(N2CCOCC2)n1 [Example 835, 4-{4-(4-chloro-3-fluorophenyl)-6-[(2R)-4-(3-chloropyridin-2-yl)-2-methylpiperazin-1-yl]pyrimidin-2-yl}morpholine] | ≤ 1000
C[C@@H]1CN(c2nccnc2Cl)CCN1c1cc(-c2ccc(F)c(Cl)c2)nc(Cl)n1 (stereo in doubt) [Example 907, 2-chloro-4-(3-chloro-4-fluorophenyl)-6-[4-(3-chloropyrazin-2-yl)-2-methylpiperazin-1-yl]pyrimidine] | ≤ 1000
CC1CCCN1c1nc(-c2ccc(F)c(F)c2)cc(N2CCN(c3ncccc3F)C[C@H]2C)n1 (stereo partly drawn) [Example 895, 4-(3,4-difluorophenyl)-6-[4-(3-fluoropyridin-2-yl)-2-methylpiperazin-1-yl]-2-(2-methylpyrrolidin-1-yl)pyrimidine] | ≤ 1000
C[C@@H]1CN(c2nccnc2Cl)CCN1c1cc(-c2ccc(F)c(F)c2)nc(Cl)n1 (stereo in doubt) [Example 823, 2-chloro-4-[4-(3-chloropyrazin-2-yl)-2-methylpiperazin-1-yl]-6-(3,4-difluorophenyl)pyrimidine] | ≤ 1000
CN(C)CCCc1cccc(-c2cc(N3CCN(c4ncccc4C(F)(F)F)CC3)nc(N3CCOCC3)n2)c1 [Example 851, N,N-dimethyl-3-[3-(2-morpholin-4-yl-6-{4-[3-(trifluoromethyl)pyridin-2-yl]piperazin-1-yl}pyrimidin-4-yl)phenyl]propan-1-amine] | ≤ 1000
C[C@@H]1CN(c2ncccc2Cl)CCN1c1cc(-c2ccc(F)cc2)nc(N2CCCC2)n1 (stereo in doubt) [Example 841, 4-[4-(3-chloropyridin-2-yl)-2-methylpiperazin-1-yl]-6-(4-fluorophenyl)-2-pyrrolidin-1-ylpyrimidine] | ≤ 1000

Same assay, conditions: Table II; determined as described in Example 6; class symbol

Structure (SMILES) | IC50 [nM]
Cc1cccc(-c2nc(N3CCOCC3)nc(N3CCN(c4ccccn4)CC3)n2)c1 [Example 234] | ≤ 1000
CC1CN(c2nc(-c3ccc(F)c(Cl)c3)nc(N3CCN(c4ncccc4C(F)(F)F)CC3)n2)CC(C)O1 (stereo not drawn) [Example 266, 2-(3-chloro-4-fluorophenyl)-4-(2,6-dimethylmorpholin-4-yl)-6-{4-[3-(trifluoromethyl)pyridin-2-yl]piperazin-1-yl}-1,3,5-triazine] | ≤ 1000

Same assay, conditions: determined as described in Example 6 (calcium mobilization, antagonist activity); Table II

Structure (SMILES) | IC50 [nM]
COC[C@@H]1CCCN1c1nc(-c2ccc(F)c(C)c2)cc(N2CCN(c3ncccc3Cl)CC2)n1 [Example 726] | ≤ 1000
CC(=O)c1nc(-c2ccc(F)c(C)c2)cc(N2CCN(c3ncccc3C(F)(F)F)CC2)n1 [Example 672, 1-(4-(4-fluoro-3-methylphenyl)-6-{4-[3-(trifluoromethyl)pyridin-2-yl]piperazin-1-yl}pyrimidin-2-yl)ethanone] | ≤ 1000
Fc1ccc(-c2cc(N3CCN(c4ncccc4C(F)(F)F)CC3)nc(SCc3ccccc3)n2)cc1Cl [Example 649, 2-(benzylthio)-4-(3-chloro-4-fluorophenyl)-6-{4-[3-(trifluoromethyl)pyridin-2-yl]piperazin-1-yl}pyrimidine] | ≤ 1000
CC1CCC(C)N1c1nc(-c2ccc(F)c(Cl)c2)cc(N2CCN(c3ncccc3Cl)CC2)n1 (stereo not drawn) [Example 751, 4-(3-chloro-4-fluorophenyl)-6-[4-(3-chloropyridin-2-yl)piperazin-1-yl]-2-(2,5-dimethylpyrrolidin-1-yl)pyrimidine] | ≤ 1000
Cc1cc(-c2cc(N3CCN(c4ncccc4C(F)(F)F)CC3)nc(C(C)O)n2)ccc1F (stereo not drawn) [Example 686, 1-(4-(4-fluoro-3-methylphenyl)-6-{4-[3-(trifluoromethyl)pyridin-2-yl]piperazin-1-yl}pyrimidin-2-yl)ethanol] | ≤ 1000
CCN(CC)c1nc(-c2cc(C)nc(C)c2)cc(N2CCN(c3ncccc3C(F)(F)F)CC2)n1 [Example 591, 4-(2,6-dimethylpyridin-4-yl)-N,N-diethyl-6-{4-[3-(trifluoromethyl)pyridin-2-yl]piperazin-1-yl}pyrimidin-2-amine] | ≤ 1000
Cc1cc(-c2cc(N3CCN(c4ncccc4Cl)CC3)nc(N3CCCCC3C)n2)ccc1F (stereo not drawn) [Example 744, 4-[4-(3-chloropyridin-2-yl)piperazin-1-yl]-6-(4-fluoro-3-methylphenyl)-2-(2-methylpiperidin-1-yl)pyrimidine] | ≤ 1000
Cc1cc(-c2cc(N3CCN(c4ncccc4C(F)(F)F)CC3)nc(N3CCOCC3)n2)cc(C)n1 [Example 590, 4-(4-(2,6-dimethylpyridin-4-yl)-6-{4-[3-(trifluoromethyl)pyridin-2-yl]piperazin-1-yl}pyrimidin-2-yl)morpholine] | ≤ 1000
CC1CN(c2cc(-c3ccc(F)c(Cl)c3)nc(N3CCOCC3)n2)CCN1c1ccccn1 (stereo not drawn) [Example 632, 4-[4-(3-chloro-4-fluorophenyl)-6-(3-methyl-4-pyridin-2-ylpiperazin-1-yl)pyrimidin-2-yl]morpholine] | ≤ 1000
